Patent US7081485B2, “Non-volatile dental compositions containing multifunctional acrylate compounds and lacking an oxygen-inhibited layer” (Bisco, Inc., priority 2002, dated 2006)

Test: Initiator absorptivity, 400–500 nm in acetonitrile
Type: physicochemical
Conditions: normalized by mass
Method: The absorptivity is the absorbance in the range of 400–500 nm in acetonitrile normalized by mass. The higher the value, the higher the absorption in the visible light range. The first three initiators undergo unimolecular bond cleavage upon irradiation. The last three initiators require a co-initiator, such as an amine, to undergo a bimolecular reaction. The initiators (and EDMAB amine if required) were added to the resin. Samples were coated on a white mixing pad, evaporated for greater than 60 seconds, and irradiated at 500 mW/cm^2 using a Bisco VIP light curing system. Samples were irradiated for 5 seconds, 10 seconds, 30 seconds, and 10 seconds in the absence of air. The “no air” cure was performed between two Mylar slips, each 0.25 mm thick. The actual concentration of initiator in the resin was double that shown in the table due to the evaporation of the acetone.

Compound | Absorbance × 10^−3
O=C1C(=O)c2ccccc2-c2ccccc21 [PAQ, phenanthrenequinone] | 466 × 10^−3
Cc1cc(C)c(C(=O)P(=O)(C(=O)c2c(C)cc(C)cc2C)c2ccccc2)c(C)c1 [Composition 819, bis(2,4,6-trimethylbenzoyl)-phenylphosphineoxide] | 23 × 10^−3
CC12CCC(C(=O)C1=O)C2(C)C (stereo not drawn) [CQ, camphorquinone] | 11 × 10^−3
Cc1cc(C)c(C(=O)P(=O)(c2ccccc2)c2ccccc2)c(C)c1 [TPO, 2,4,6-trimethylbenzoyl-diphenylphosphinate] | 6 × 10^−3
CCOP(=O)(C(=O)c1c(C)cc(C)cc1C)c1ccccc1 (stereo not drawn) [TPOL, ethyl-2,4,6-trimethylbenzoyl-phenylphosphinate] | 4 × 10^−3
CCCCOc1ccc2cc3cc(I)c(=O)c(I)c-3oc2c1 [HNu, 5,7-diiodo-3-butoxy-6-fluorone] | 2960 × 10^−3
